Measurements reported in patent publication US20080015214A1 (priority 2005, published 2008).

Key:
Assay in all cases: biochemical
Assay type in all cases: binding
[1] = target: kappa (κ) opioid receptor (Homo sapiens, UniProt P41145); conditions: 2C2 cell line membrane, U69593-H3 ligand
mu (μ) opioid receptor = mu (μ) opioid receptor (Homo sapiens, UniProt P35372)
[2] = target: human nociceptin receptor (ORL-1) (Homo sapiens, UniProt P41146)
human nociceptin receptor (ORL-1), sequence (P41146 whole entry): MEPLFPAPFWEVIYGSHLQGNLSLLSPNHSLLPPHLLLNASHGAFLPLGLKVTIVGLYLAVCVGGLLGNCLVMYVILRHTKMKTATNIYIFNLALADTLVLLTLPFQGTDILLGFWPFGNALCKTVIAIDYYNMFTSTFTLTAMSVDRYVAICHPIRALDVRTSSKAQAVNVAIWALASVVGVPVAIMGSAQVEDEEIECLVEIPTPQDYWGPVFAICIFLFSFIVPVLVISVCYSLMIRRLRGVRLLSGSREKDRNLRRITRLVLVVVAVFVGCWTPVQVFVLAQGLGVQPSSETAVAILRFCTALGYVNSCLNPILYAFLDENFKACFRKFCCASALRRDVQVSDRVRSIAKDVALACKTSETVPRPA

mu (μ) opioid receptor, sequence (P35372 whole entry): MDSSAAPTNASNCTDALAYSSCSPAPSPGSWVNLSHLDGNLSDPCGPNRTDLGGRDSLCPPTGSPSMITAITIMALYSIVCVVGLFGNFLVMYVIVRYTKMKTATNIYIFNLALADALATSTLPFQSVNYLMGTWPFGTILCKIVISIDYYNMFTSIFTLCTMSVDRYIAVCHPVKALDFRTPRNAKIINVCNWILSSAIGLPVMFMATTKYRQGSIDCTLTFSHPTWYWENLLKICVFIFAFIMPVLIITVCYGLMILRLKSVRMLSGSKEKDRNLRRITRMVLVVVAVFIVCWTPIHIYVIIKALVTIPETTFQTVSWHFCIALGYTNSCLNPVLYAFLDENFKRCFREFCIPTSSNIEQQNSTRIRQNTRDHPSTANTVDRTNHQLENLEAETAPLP
kappa (κ) opioid receptor, sequence (P41145 whole entry): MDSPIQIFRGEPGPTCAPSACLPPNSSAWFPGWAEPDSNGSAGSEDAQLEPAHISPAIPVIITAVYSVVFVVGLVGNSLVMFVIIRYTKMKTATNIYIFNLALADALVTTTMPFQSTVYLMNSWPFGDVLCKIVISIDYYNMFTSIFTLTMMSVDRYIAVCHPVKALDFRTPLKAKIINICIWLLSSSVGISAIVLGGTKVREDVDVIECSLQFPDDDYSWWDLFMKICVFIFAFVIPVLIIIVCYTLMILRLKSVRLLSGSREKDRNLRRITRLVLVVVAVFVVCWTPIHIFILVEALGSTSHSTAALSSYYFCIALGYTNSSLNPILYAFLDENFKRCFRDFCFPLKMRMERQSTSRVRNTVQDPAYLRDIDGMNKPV

| SMILES | IC50 (mu (μ) opioid receptor) [nM] | IC50 [2] [nM] | IC50 [1] [nM] |
| --- | --- | --- | --- |
| OC1CN(C2Cc3cccc4cccc2c34)CCC1c1c[nH]c2ncccc12 (mixture of isomers) [Cpd 40, 1-acenaphthen-1-yl-4-(1 H-pyrrolo[2,3-b]pyridin-3-yl)-piperidin-3-ol] |  |  | 4300 |
| c1ccc2c(CN3CCC(c4c[nH]c5ncccc45)CC3)cccc2c1 [Cpd 33, 3-(1-naphthalen-1-ylmethyl-piperidin-4-yl)-1H-pyrrolo[2,3-b]pyridine] | 345 | 821 |  |
| c1cc2c3c(cccc3c1)C(N1CCC(c3cn(C4Cc5cccc6cccc4c56)c4ncccc34)CC1)C2 (stereo not drawn) [Cpd 35, 1-acenaphthen-1-yl-3-(1-acenaphthen-1-yl-piperidin-4-yl)-1H-pyrrolo[2,3-b]pyridine] |  |  | 840 |

Now from value to molecule, other results behind:

| IC50 (mu (μ) opioid receptor) [nM] | IC50 [2] [nM] | SMILES | IC50 [1] [nM] |
| --- | --- | --- | --- |
|  | 3500 | c1cnc2[nH]cc(C3CCN(CC4CCCCC4)CC3)c2c1 [Cpd 52, 3-(1-cyclohexylmethyl-piperidin-4-yl)-1H-pyrrolo [2,3-b]pyridine] |  |
| 339 |  | c1ccc(Oc2ccc(CN3CCC(c4c[nH]c5ncccc45)CC3)cc2)cc1 [Cpd 55, 3-[1-(4-phenoxy-benzyl)-piperidin-4-yl]-1H-pyrrolo[2,3-b]pyridine] |  |
